In US6723755B2, “Method of treating rosacea” (priority 2002, dated 2004):

Tests used:
[1] = system: rosacea; assay: topical treatment of rosacea (related materials tested); format: in vivo, humans; settings: topical application
[2] = system: skin; assay: skin irritation on topical application; format: in vivo

Structure (SMILES) | usefulness in the present invention (treatment of rosacea) [1] | irritation (reddening) of the skin to which it is applied [2]
C1CCCCC1 [cyclohexane] | not to be useful | 
OCC1(CO)CC2C=CC1C2 (stereo not drawn) [5-norborene-2,2-dimethanol] | do not work | 
ClC1CCCCC1 [cyclohexyl chloride] | not to be useful | 
CC1CCC(C(C)C)C(O)C1 (stereo not drawn) [menthol] | not to be useful | can irritate (and thereby redden) the skin
OCCCCC1CCCCC1 [4-cyclohexyl-1-butanol] | not to be useful | 
OC1CCCC1O (stereo not drawn) [1,2-cyclopentanediol] | do not work | 
CC1(O)CCCCC1 [1-methylcyclohexanol] | not to be useful | 
CC(=O)OC1CCCCC1 [cyclohexyl acetate] | not to be useful | 
O=C(O)C1CCCCC1 [cyclohexyl carboxylic acid] | not to be useful | 
CC1(C)[C@H]2C[C@H]1[C@@](C)(O)[C@@H](O)C2 [(1R,2R,3S,5S-(−))-pinanediol] | do not work | 
C1=CCCCC1 [cyclohexene] | not to be useful | 
